Measurements published in patent publication US7462601B2, “Ameliorant for chemical treatment of cancer” (priority 2002, dated 2008).

Legend:
Assay type in all cases: in vivo, BDF mice
[1] = Repressing side effects (4): decrease of body weight under ADM in P388 leukemia mice; conditions: Control Group: ADM 16 mg/kg once daily for 9 days
Description: P388 leukemia cells (6×10^6 cells) were administered intraperitoneally to female BDF mice of 8-9 weeks old (8 heads per group, body weight of 20-22 g). On the following day, ADM was administered in a dosage of 16 mg/kg once daily for 9 days. The mice formed Control Group. A group of mice to which TMG was administered simultaneously with ADM in a dosage of 0.1 mg/kg once daily for 9 days formed Test Group.
The time-course changes of the body weight of the Control Group and Test Group were measured.

[2] = test system: P388 leukemia cells; test: Enhancing carcinostatic action in cancer chemotherapy (3): ADM and TMG, survival of P388 leukemia mice; conditions: ADM 16 mg/kg i.p. 1st, 3rd, 5th, 7th days, TMG 0, 7 days after administration
Description: P388 leukemia cells (6×10^6 cells) were administered intraperitoneally to female BDF mice of 8-9 weeks old (8 heads per group, body weight of 20-22 g). On the following day (1st day), 16 mg/kg of adriamycin (ADM) and a prescribed amount TMG were intraperitoneally administered to the mice. Thereafter, ADM (16 mg/kg) was administered on the 3rd, 5th, and 7th days and TMG (prescribed amount as mentioned above) was simultaneously administered every day on the 2nd-7th days. The survival ratio of these mice was measured 7 days after the administration of ADM and TMG.

[3] = Repressing side effects (2): number of leukocytes in blood under CDDP; conditions: Control Group: CDDP 2 mg/kg i.p. once daily for 10 days
Description: CDDP was intraperitoneally administered in a dosage of 2 mg/kg to 5 BDF mice of 8 weeks old once daily for 10 days. These mice formed Control Group. A group of mice to which CDDP was administered simultaneously with TMG in a dosage of 1 mg/kg once daily for 10 days formed Test Group. The time course changes of the numbers of leukocytes in blood of the Control Group and Test Group were measured.

[4] = Repressing side effects (1): survival after lethal dose of CDDP
Description: CDDP was intraperitoneally administered in a dosage of 16 mg/kg, a lethal dose, to 10 BDF mice of 8 weeks old (22-25 g). These mice formed Control Group. A group of mice to which CDDP was administered simultaneously with TMG in a dosage of 0.01 mg/kg formed Test Group 1 and a group of mice to which CDDP was administered simultaneously with TMG in a dosage of 1.0 mg/kg formed Test Group 2. The time course changes of survival ratio of the Control Group and Test Groups were measured.

[5] = test system: P388 leukemia cells; test: Enhancing carcinostatic action in cancer chemotherapy (1): CDDP and TMG, survival of P388 leukemia mice; conditions: 5th, TMG 0, 60 days; for Number surviving: 8 per group
Description: P388 leukemia cells (6×10^6 cells) were administered intraperitoneally to female BDF mice of 8-9 weeks old (8 heads per group, body weight of 20-22 g). On the following day, a solution having prescribed amounts of cisplatin (CDDP) and TMG in 0.2 ml of physiological saline was intraperitoneally administered to the mice. The survival ratio of these mice was measured 60 days after the administration of CDDP and TMG.

[6] = test system: P388 leukemia cells; test: Enhancing carcinostatic action in cancer chemotherapy (2): CPA and TMG, survival of P388 leukemia mice; conditions: CPA alone administered, 360 mg/kg i.p. 1st, 3rd, 5th, 7th days, 60 days
Description: P388 leukemia cells (6×10^6 cells) were administered intraperitoneally to female BDF mice of 8-9 weeks old (8 heads per group, body weight of 20-22 g). On the following day (1st day), cyclophosphamide (CPA) and TMG were administered at respective dose of 360 mg/kg and 0.01 mg/kg were intraperitoneally administered to the mice. Thereafter, CPA (360 mg/kg) was administered on the 3rd, 5th, and 7th days and TMG (0.01 mg/kg) was administered every day from the 2nd through 9th days. The survival ratio of these mice was measured 60 days after the administration of CPA and TMG.

[7] = CDDP 2 mg/kg i.p. 1st, 3rd, 7th days
[8] = CDDP 4 mg/kg i.p. 1st, 9th days

Q: Which “Decrease of body weight” value ([1]; P388 mice, day 1 after start of the test) does the source give for `COc1cccc2c1C(=O)c1c(O)c3c(c(O)c1C2=O)C[C@@](O)(C(=O)CO)C[C@@H]3O[C@H]1C[C@H](N)[C@H](O)[C@H](C)O1` [ADM, adriamycin] here?
A: The value was 1.5 g.

Q: And the “Decrease of body weight” value ([1]; day 3)?
A: Its value is 3.3 g.

Q: And the “Decrease of body weight” value ([1]; day 5)?
A: Its value is 5.7 g.

Q: What about the “Decrease of body weight” value ([1]; day 7) of the same compound?
A: Its value is 6.5 g.

Q: What about the Survival ratio [2] of the same compound?
A: The Survival ratio was 0%.

Q: What about the Number surviving ([2]; 8 per group) of the same compound?
A: The Number surviving was 0 Heads.

Q: Which Number of leukocytes ([3]; day 0 after start of test) does the source give for `[NH2][Pt]([NH2])([Cl])[Cl]` [CDDP, cisplatin] here?
A: Its Number of leukocytes is 20000 µL⁻¹.

Q: What about the Number of leukocytes ([3]; day 10) of the same compound?
A: The Number of leukocytes was 10000 µL⁻¹.

Q: And the Number of leukocytes ([3]; day 20)?
A: The Number of leukocytes was 6000 µL⁻¹.

Q: What about the Number of leukocytes ([3]; day 25) of the same compound?
A: The Number of leukocytes was 11000 µL⁻¹.

Q: And the Survival ratio ([4]; Control Group: CDDP 16 mg/kg i.p. (lethal dose) alone, day 0 after administration of CDDP)?
A: Its Survival ratio is 100%.

Q: What about the Survival ratio ([4]; Control Group: CDDP 16 mg/kg i.p. alone, day 5) of the same compound?
A: The Survival ratio was 80%.

Q: What about the Survival ratio ([4]; Control Group: CDDP 16 mg/kg i.p. alone, day 8) of the same compound?
A: Its Survival ratio is 30%.

Q: And the Survival ratio ([4]; Control Group: CDDP 16 mg/kg i.p. alone, day 10)?
A: The Survival ratio was 0%.

Q: And the Survival ratio [5, 7]?
A: Its Survival ratio is 75%.

Q: And the Number surviving [5, 7]?
A: Its Number surviving is 6 Heads.

Q: What about the Survival ratio [5, 8] of the same compound?
A: Its Survival ratio is 75%.

Q: What about the Number surviving [5, 8] of the same compound?
A: Its Number surviving is 6 Heads.

Q: With `O=P1(N(CCCl)CCCl)NCCCO1` (centres unmarked) [CPA, cyclophosphamide] as the compound, how does the Survival ratio [6] read?
A: Its Survival ratio is 50%.

Q: And the Number surviving ([6]; 8 per group)?
A: Its Number surviving is 4 Heads.
